Experimental data taken from patent US20190038587A1, “DNA Methylation Landscapes of Post-Traumatic Stress Disorder (PTSD) Susceptibility and Resilience and Novel Therapeutics of PTSD Derived Thereof” (priority 2016, published 2019).

What was measured:
long term potentiation = details: literature; cited from earlier work
[1] = test system: susceptible rats (PTSD-like); assay: Rat PTSD model (predator scent, incubation of fear): freezing behavior in open field after third reminder; type: in vivo, Sprague-Dawley rats
Method: Adult male Sprague-Dawley rats (250-270 gr; Harlan, Rehovot, Israel) were used and housed under conditions of constant temperature (22° C.) and 50% humidity, with a 12-h light-12-h dark cycle. The rats were allowed to habituate to the animal house for 7 days (acclimation). They were housed three per cage, two experimental rats together with a third companion rat. The same three rats remained together until the end of the study. Food and water were provided ad libitum. All experiments were performed between 08:00 and 14:00 in daylight. All animal procedures were approved by the Bar-Ilan University Animal Care Committee and were carried out in accordance with the NIH Guide for the Care and Use of Laboratory Animals.
The model used in this research is based on Kesner et al., 2009^32. This model consists of several stages encompassing […], detailed below and depicted in FIG. 1. The animals are analyzed according to three clinically-relevant clusters of symptoms: manifestation of freezing behavior when (a) situated alone in an open field paradigm (re-experiencing), (b) situated with a habituated companion (social interaction) and (c) after exposure to a hyperarousal event^33. The range of each measured behavioral procedure was determined for all animals after the base-line (week 3). The data collected at baseline was analyzed and the explore procedure was applied using SPSS 11 to define the range of the population. The upper and lower levels of this range were treated as ‘normal baseline’ and alterations from this range were used to define PTSD-like behavior (susceptible).
Each experimental or naive rat was habituated for 7 days to their home cage (the first week of the habituation). For the first stage of the experiment each experimental or naive rat was habituated for 7 days to an open field apparatus together with a companion rat from their home cage, 5 min per day for 7 days (the second week of the experiment). The open field apparatus was a 90×90×30 cm Plexiglas box, which was placed under a camera. The video and computer equipment were situated in a separate room where all video and observation analyses were performed.
After 14 days (Day 1) of habituation, baseline freezing levels of experimental and naive rats were measured prior to stress exposure. Behavioral parameters and measurements are described below (Behavioral Measurements section).
One week later (Day 7), experimental rats were exposed to stress, i.e. predator scent. Individual rats were placed for 30 min in a clean plastic cylinder (diameter: 30 cm, height: 33 cm) containing 125 ml of well-soiled cat litter, used by a cat during the 24 h prior to the experiment. After exposure to stress, each rat was transferred to the open field, and three behavioral parameters were measured (as described in the Behavioral Measurements section below). The cylinder was cleaned between testing of each rat. Temperature and humidity conditions in the stress exposure area were identical to those in the housing cages and open field. The companion rats were not exposed to stress, and were housed in separate cages in a separate housing area during all experiments. The same cat was used for the litter introduced during initial exposure.
One week later (Day 14), rats were re-exposed for 30 minutes to litter with the same texture, but without the cat scent. Behavioral parameters were subsequently tested (as described below).
Three weeks later (Day 35), rats were again exposed for 30 min to litter with the same texture and without cat scent. Behavioral parameters were subsequently tested (as described below). Behavioral data for this testing stage were analyzed according to the division criteria detailed below. Based on the obtained results, experimental rats were defined as either susceptible or resilient.
After exposure to cat litter, each rat was placed in the open field for measurement of PTSD-like behavior. […]

[2] = test system: DNA methylation profile in the NAc; assay: Capture bisulfite sequencing and DNA methylation mapping of nucleus accumbens after SAM treatment; type: in vivo, Sprague-Dawley rats
Method: (§1) Brains were removed immediately after exposure to litter with cat scent immediately after Re3. Each brain was placed in a Perspex brain matrix and sliced into 1.0 mm segments. The NAc was punched out using a micro dissecting needle of 13-14 G. Brain tissue was frozen at −70° C. until DNA and RNA extraction.
Genomic DNA was extracted using All Prep DNA/RNA Micro Kit, Qiagen (Hilden, Germany)
The SeqCap Epi Enrichment System was used for target bisulfite sequencing of promoters and enhancers in the rat genome. The rat (rn4) target probes were custom designed by utilizing H3K4me1 and H3K4me3 (indicating enhancers and promoters respectively) signals from mouse samples as there is no currently available ChIP data of H3K4me1 and H3K4me3 with respect to the rat species. PuttivH3K4me1 and me3 were selected by mapping and aligning genomic fragments from mouse to the rat and retaining any fragments that share a high similarity and the subsequent associated signals. A total of 53374 target probes have been designed spanning 48072248 base pairs of sequence with a mean probe size of 900 bp. Biotinylated target probes were designed for both strands of bisulfite converted genomic DNA. Bisulfite treated genomic DNA is ligated to methylated NGS adaptors, hybridized to the biotinylated oligonucleotide probes which is followed by a series of washes of off-target DNA sequences and unbound DNA. The resulting isolated specific DNA then undergoes PCR amplification for downstream sequencing on Illumina Hiseq 2000 sequencer. Capture and hybridization is performed as a service for fee by ICRM in Montreal licensed by Roche/Nimblegen. The following bioinformatics workflow is used in the lab. Quality control is done using FastQC to assess sequencing scores and other quality metrics. If necessary, trimming of raw file is performed using Trimmomatic to remove low scoring sequencing results and/or adapter contents. Sequences are aligned to rn4 rat reference genome using Bsmap v2.89. A typical alignment rate of 90%-95% is achieved (30× coverage). The resulting sequencing alignment file (SAM) is converted to binary alignment format (BAM) for downstream analysis and filtering. BAM files are split, merged, and sorted by strand for additional downstream filtering and analysis. Duplicate reads within the BAM files are removed via Picard Tools (v1.93, BROAD institute) strand-specifically and the separate BAM files are merged back together and examined by Bamtools to assess whether the sequences are properly mapped to genome, whether both paired end reads exist (for paired end sequencing), and whether paired end reads are properly paired to each other (for paired end sequencing). Using the final BAM file, methylation ratios and coverage is recovered by provided scripts within Bsmap as well as methylation context. Annotation of genomic locations is performed by HOMER. Computation of differential methylation sites and tiled windows of differentially methylated regions was performed using a logistic regression method with the Methylkit R package in Bioconductor1. FDR adjusted P value significance threshold is held at <0.2.
NAcs were isolated from the animals (n=4-7 per group) following the third reminder and DNA and RNA were extracted as described in the methods. DNA was bisulfite converted, enriched using capture arrays for all predicted promoters and enhancers in the rat genome and was then subjected to next generation sequencing. […]

RORA mRNA = RORA mRNA expression in nucleus accumbens following the third reminder; type: in vivo, Sprague-Dawley rats; details: NAc following Re3; SAM vs saline; FIG. 6C
Method: as §1
The retinoic biosynthesis and degradation pathway was also enriched with differentially methylated genes. In the susceptible group there was an enrichment in downstream targets of the RAR-Related Orphan Receptor A (RORA), however the impact on level of activity of this pathway could not be derived from this analysis (FIG. 6B). Therefore, the levels of RORA mRNA expression in the different groups was first determined. RORA mRNA expression levels were higher in either control or resilient animals treated with either saline or SAM than in susceptible animals (*p<0.05, *p<0.05 and **p<0.01 respectively) (FIG. 6C), consistent with the possibility that this gene is involved in the pathology of PTSD. […] Therefore, it was hypothesized that the RORA pathway is involved in the hyperarousal behavior which is resistant to SAM's treatment and characteristic of the susceptible PTSD group. The correlation between the mRNA expression of RORA and the three behavioral tests was first measured; as hypothesized, only the hyperarousal behavior was correlated with the mRNA expression of RORA (FIG. 6D). […]

[3] = test system: Beta estradiol downstream pathway; assay: Pathway analysis of upstream regulators of differentially methylated genes; set-up: species or system Sprague-Dawley rats; details: susceptible animals treated with SAM relative to susceptible treated with saline; FIG. 6B
Description: If DNA methylation plays a causal role in PTSD, comparative analysis of upstream regulators of genes whose DNA methylation is different in control, susceptible, resilient and SAM treated animals could reveal important putative new pathways and networks involved in PTSD molecular pathology that are candidates for therapeutic intervention (FIG. 6A). […] Other up-regulators of differentially methylated genes are presented in the Heatmap. These pathways are relevant to anxiety and memory pathways such as: sex hormones, glucocorticoid and different cytokines.
In reference to FIG. 6, “A” is coloring representing the p value of each group for the different “upstream-regulator” regulated pathways. Light blue represents low activation and dark blue represents high activation of the pathway. Grey represents pathways that didn't change. Yellow lines and boxes represent sex hormone dependent pathways, blue lines and boxes represent cytokine regulated pathways, pink lines and boxes represent glucocorticoids regulated pathways and green lines and boxes represent retinoic acid (vitamin A) regulated pathways. “B” is circular heat maps representing the different pathways that are influenced by a specific “upstream-upregulator” and are altered in PTSD susceptible and resistant animals. […]

[4] = susceptible-SAM vs susceptible-saline rats, threshold >10, Q value 0.2, FIG. 4A

Row | SMILES | effect on long term potentiation (long term potentiation) | freezing behavior during the 'exploration' test ([1]; Embodiment 2, susceptible rats, SAM 25 mg/kg i.p. 24 h and 1 h before Re-3, vs susceptible-saline, FIG. 3A) | freezing behavior during the 'social interaction' test ([1]; Embodiment 2, susceptible rats, SAM 25 mg/kg i.p. 24 h and 1 h before Re-3, vs susceptible-saline, FIG. 3B) | freezing behavior during the 'hyperarousal' test ([1]; Embodiment 2, susceptible rats, SAM 25 mg/kg i.p. 24 h and 1 h before Re-3, vs susceptible-saline, FIG. 3C) | freezing behavior during the 'exploration' test ([1]; Embodiment 4, susceptible rats, SAM 25 mg/kg and/or retinoic acid 2 mg/kg i.p. 24 h and 1 h before Re-3, vs susceptible-RA and susceptible-saline, FIG. 7A) | freezing behavior during the 'social interaction' test ([1]; Embodiment 4, susceptible rats, SAM 25 mg/kg and/or retinoic acid 2 mg/kg i.p. 24 h and 1 h before Re-3, vs susceptible-RA and susceptible-saline, FIG. 7B) | fold change in freezing behavior in 'exploration' and 'social interaction' tests (from Re-2 to Re-3) ([1]; susceptible-treated rats, FIG. 3D-G) | fold change in freezing behavior in the 'hyperarousal' test (from Re-2 to Re-3) ([1]; susceptible-treated rats, FIG. 3H-I) | CGs sites differentially methylated in the susceptible animals and reversed by the SAM treatment ([2]; FIG. 4A-B) [CGs sites] | CG sites differentially methylated in both the susceptible and the resilient rats affected by SAM ([2]; FIG. 4C-D) [CG sites] | fraction of total susceptible sites reversed by SAM treatment ([2]; sites altered in susceptible rats relative to controls) [%] | CGs sites that were de-methylated [2, 4] [CGs sites] | CGs sites that were hyper-methylated [2, 4] [CGs sites] | level of expression of RORA (mRNA) (RORA mRNA) | state of activity of Beta estradiol downstream pathway [3]
1 | Nc1ncn([C@H]2C[C@H](O)[C@@H](CO)O2)c(=O)n1 [5-aza-2-deoxycytidine] | inhibited long term potentiation |  |  |  |  |  |  |  |  |  |  |  |  |  | 
2 | C[S+](CC[C@H](N)C(=O)O)C[C@H]1O[C@@H](n2cnc3c(N)ncnc32)[C@H](O)[C@@H]1O (stereo partly drawn) [SAM, S-adenosylmethionine] |  | significantly decreased | significantly decreased | no difference in freezing behavior | significantly decreased | significantly decreased | effective in reducing these behaviors | ineffective in changing freezing behavior | 140 | 38 | 30 | 599 | 363 | no effect | inhibited
